Assay results published in patent US20140364431A1, “Quinoline and cinnoline derivatives and their applications” (Shenyang Pharmaceutical University, priority 2011, published 2014).
Converted amounts (≈) assume the structure as drawn. Where a name gives a salt, the structure may show the parent alone.

What was measured:
[1] = test system: MKN-45 (human gastric carcinoma cell); test: In vitro anti-tumor cellular activity (MTT), MKN-45; assay type: cell-based; conditions: for IC50: Homo sapiens, MKN-45, 72 h, read-out: MKN-45 IC50; for MKN-45 IC50: MTT, 72 hours
[2] = test system: H460 (human lung cancer cell); test: In vitro anti-tumor cellular activity (MTT), H460; assay type: cell-based; conditions: for IC50: Homo sapiens, NCI-H460, 72 h, read-out: H460 IC50; for H460 IC50: MTT, 72 hours
[3] = test system: SMMC-7721 (hepatoma cell); test: In vitro anti-tumor cellular activity (MTT), SMMC-7721; assay type: cell-based, human; conditions: for IC50: Homo sapiens, SMMC-7721, 72 h, read-out: SMMC-7721 IC50; for SMMC-7721 IC50: MTT, 72 hours
[4] = test system: U87MG (Human malignant glioblastoma cells); test: In vitro anti-tumor cellular activity (MTT), U87MG; assay type: cell-based; conditions: for IC50: Homo sapiens, U-87 MG, 72 h, read-out: U87MG IC50; for U87MG IC50: MTT, 72 hours
[5] = test system: HT-29 (colon cancer cell); test: In vitro anti-tumor cellular activity (MTT), HT-29; assay type: cell-based, human; conditions: for IC50: Homo sapiens, HT-29, 72 h, read-out: HT-29 IC50; for HT-29 IC50: MTT, 72 hours

Row | Compound | IC50 [1] | IC50 [2] | IC50 [3] | IC50 [4] | IC50 [5] | MKN-45 IC50 [1] | H460 IC50 [2] | SMMC-7721 IC50 [3] | U87MG IC50 [4] | HT-29 IC50 [5]
1 | COc1cc2c(Oc3ccc(NC(=O)c4nn(-c5c(Cl)cccc5Cl)c5ccccc5c4=O)cc3F)ccnc2cc1OCCCN1CCC(C)CC1 [Example 30, N-(3-fluoro-4-((6-methoxy-7-(3-(4-methylpiperidin-1-yl)propoxy)quinolin-4-yl)oxy)phenyl)-1-(2,6-dichlorophenyl)-4-oxo-1,4-dihydrocinnoline-3-carboxamide] | 0.5 µg/mL (≈ 0.661 µM) | 0.7 µg/mL (≈ 0.925 µM) | 0.1 µg/mL (≈ 0.132 µM) | 0.27 µg/mL (≈ 0.357 µM) | 0.49 µg/mL (≈ 0.648 µM) |  |  |  |  | 
2 | COc1cc2c(Oc3ccc(NC(=O)c4nn(-c5ccc(Cl)cc5Cl)c5ccccc5c4=O)cc3F)ccnc2cc1OCCCN1CCCCC1 [Example 27, N-(3-fluoro-4-((6-methoxy-7-(3-(piperidin-1-yl)propoxy)quinolin-4-yl)oxy)phenyl)-1-(2,4-dichlorophenyl)-4-oxo-1,4-dihydrocinnoline-3-carboxamide] | 2.1 µg/mL (≈ 2.83 µM) | 1.5 µg/mL (≈ 2.02 µM) | 0.9 µg/mL (≈ 1.21 µM) | 0.6 µg/mL (≈ 0.808 µM) | 1.8 µg/mL (≈ 2.42 µM) |  |  |  |  | 
3 | COc1cc2c(Oc3ccc(NC(=O)c4nn(-c5ccc(C)cc5C)c5ccccc5c4=O)cc3F)ccnc2cc1OCCCN1CCCC1 [Example 25, N-(3-fluoro-4-((6-methoxy-7-(3-(pyrrolidin-1-yl)propoxy)quinolin-4-yl)oxy)phenyl)-1-(2,4-dimethylphenyl)-4-oxo-1,4-dihydrocinnoline-3-carboxamide] | 1.5 µg/mL (≈ 2.18 µM) | 0.89 µg/mL (≈ 1.29 µM) | 0.76 µg/mL (≈ 1.11 µM) | 2.9 µg/mL (≈ 4.22 µM) | 1.1 µg/mL (≈ 1.6 µM) |  |  |  |  | 
4 | N-(3-fluoro-4-((6-methoxy-7-(3-(4-methylpiperidin-1-yl)propoxy)quinolin-4-yl)oxy)phenyl)-1-(4-fluorophenyl)-4-oxo-1,4-dihydrocinnoline-3-carboxamide [Example 13] |  |  |  |  |  | 0.23 µg/mL | 0.081 µg/mL | 0.67 µg/mL | 0.45 µg/mL | 0.18 µg/mL
5 | COc1cc2c(Oc3ccc(NC(=O)c4nn(-c5ccc(F)cc5Br)c5ccccc5c4=O)cc3F)ccnc2cc1OCCCN1CCCC1 [Example 18, N-(3-fluoro-4-((6-methoxy-7-(3-(pyrrolidin-1-yl)propoxy)quinolin-4-yl)oxy)phenyl)-1-(2-bromo-4-fluorophenyl)-4-oxo-1,4-dihydrocinnoline-3-carboxamide] | 1.5 µg/mL (≈ 1.98 µM) | 1.3 µg/mL (≈ 1.72 µM) | 2.1 µg/mL (≈ 2.78 µM) | 0.8 µg/mL (≈ 1.06 µM) | 0.9 µg/mL (≈ 1.19 µM) |  |  |  |  | 
6 | COc1cc2c(Oc3ccc(NC(=O)c4nn(-c5ccccc5OC(F)(F)F)c5ccccc5c4=O)cc3F)ccnc2cc1OCCCN1CCOCC1 [Example 37, N-(3-fluoro-4-((6-methoxy-7-(3-(morpholin-4-yl)propoxy)quinolin-4-yl)oxy)phenyl)-1-(2-(trifluoromethoxy)phenyl)-4-oxo-1,4-dihydrocinnoline-3-carboxamide] | 2.3 µg/mL (≈ 3.03 µM) | 1.9 µg/mL (≈ 2.5 µM) | 1.5 µg/mL (≈ 1.97 µM) | 2.1 µg/mL (≈ 2.76 µM) | 0.9 µg/mL (≈ 1.18 µM) |  |  |  |  | 
7 | N-(3-fluoro-4-((6-methoxy-7-(3-(pyrrolidin-1-yl)propoxy)quinolin-4-yl)oxy)phenyl)-1-(3,4-difluorophenyl)-4-oxo-1,4-dihydrocinnoline-3-carboxamide [Example 12] |  |  |  |  |  | 1.2 µg/mL | 0.91 µg/mL | 0.67 µg/mL | 0.55 µg/mL | 0.41 µg/mL
8 | COc1cc2c(Oc3ccc(NC(=O)c4nn(-c5cccc(C(F)(F)F)c5)c5ccccc5c4=O)cc3F)ccnc2cc1OCCCN1CCCCC1 [Example 6, N-(3-fluoro-4-((6-methoxy-7-(3-(piperidin-1-yl)propoxy)quinolin-4-yl)oxy)phenyl)-1-(3-(trifluoromethyl)phenyl)-4-oxo-1,4-dihydrocinnoline-3-carboxamide] | 0.1 µg/mL (≈ 0.135 µM) | 1.7 µg/mL (≈ 2.29 µM) | 1.3 µg/mL (≈ 1.75 µM) | 1.4 µg/mL (≈ 1.89 µM) | 0.63 µg/mL (≈ 0.849 µM) |  |  |  |  | 
9 | COc1cc2c(Oc3ccc(NC(=O)c4nn(-c5ccc(Br)cc5)c5ccccc5c4=O)cc3F)ccnc2cc1OCCCN1CCCCC1.Cl.Cl [Example 3, N-(3-fluoro-4-((6-methoxy-7-(3-(piperidin-1-yl)propoxy)quinolin-4-yl)oxy)phenyl)-1-(4-bromophenyl)-4-oxo-1,4-dihydrocinnoline-3-carboxamide dihydrochloride] | 0.34 µg/mL | 0.3 µg/mL | 0.63 µg/mL | 1.2 µg/mL | 0.86 µg/mL |  |  |  |  | 
10 | COc1cc2c(Oc3ccc(NC(=O)c4nn(-c5ccc(Cl)cc5)c5ccccc5c4=O)cc3F)ccnc2cc1OCCCN1CCCCC1 [Example 10, N-(3-fluoro-4-((6-methoxy-7-(3-(piperidin-1-yl)propoxy)quinolin-4-yl)oxy)phenyl)-1-(4-chlorophenyl)-4-oxo-1,4-dihydrocinnoline-3-carboxamide] | 0.087 µg/mL (≈ 0.123 µM) | 0.06 µg/mL (≈ 0.0847 µM) | 1 µg/mL (≈ 1.41 µM) | 0.86 µg/mL (≈ 1.21 µM) | 0.42 µg/mL (≈ 0.593 µM) |  |  |  |  | 
11 | N-(3-fluoro-4-((6-methoxy-7-(3-(morpholin-4-yl)propoxy)quinolin-4-yl)oxy)phenyl)-1-(2-f luorophenyl)-4-oxo-1,4-dihydrocinnoline-3-carboxamide [Example 45] |  |  |  |  |  | 1.6 µg/mL | 1 µg/mL | 2.3 µg/mL | 2.1 µg/mL | 0.87 µg/mL
12 | COc1cc2c(Oc3ccc(NC(=O)c4nn(-c5ccccc5Br)c5ccccc5c4=O)cc3F)ccnc2cc1OCCCN1CCOCC1 [Example 34, N-(3-fluoro-4-((6-methoxy-7-(3-(morpholin-4-yl)propoxy)quinolin-4-yl)oxy)phenyl)-1-(2-bromophenyl)-4-oxo-1,4-dihydrocinnoline-3-carboxamide] | 1.3 µg/mL (≈ 1.72 µM) | 0.7 µg/mL (≈ 0.928 µM) | 1.5 µg/mL (≈ 1.99 µM) | 0.65 µg/mL (≈ 0.861 µM) | 0.43 µg/mL (≈ 0.57 µM) |  |  |  |  | 
13 | COc1cc2c(Oc3ccc(NC(=O)c4nn(-c5c(Cl)cccc5Cl)c5ccccc5c4=O)cc3F)ccnc2cc1OCCCN1CCCCC1 [Example 29, N-(3-fluoro-4-((6-methoxy-7-(3-(piperidin-1-yl)propoxy)quinolin-4-yl)oxy)phenyl)-1-(2,6-dichlorophenyl)-4-oxo-1,4-dihydrocinnoline-3-carboxamide] | 0.67 µg/mL (≈ 0.902 µM) | 0.77 µg/mL (≈ 1.04 µM) | 1.2 µg/mL (≈ 1.62 µM) | 0.74 µg/mL (≈ 0.996 µM) | 0.44 µg/mL (≈ 0.592 µM) |  |  |  |  | 
14 | COc1cc2c(Oc3ccc(NC(=O)c4nn(-c5ccccc5C(F)(F)F)c5ccccc5c4=O)cc3F)ccnc2cc1OCCCN1CCOCC1 [Example 4, N-(3-fluoro-4-((6-methoxy-7-(3-(morpholin-4-ylpropoxy)quinolin-4-yl)oxy)phenyl)-1-(2-(trifluoromethyl)phenyl)-4-oxo-1,4-dihydrocinnoline-3-carboxamidedihydrochloride] | 2 µg/mL | 1 µg/mL | 0.9 µg/mL | 0.8 µg/mL | 1.2 µg/mL |  |  |  |  | 
15 | COc1cc2c(Oc3ccc(NC(=O)c4nn(-c5ccccc5Cl)c5ccccc5c4=O)cc3F)ccnc2cc1OCCCN1CCOCC1 [Example 33, N-(3-fluoro-4-((6-methoxy-7-(3-(morpholin-4-yl)propoxy)quinolin-4-yl)oxy)phenyl)-1-(2-chlorophenyl)-4-oxo-1,4-dihydrocinnoline-3-carboxamide] |  | 2.2 µg/mL (≈ 3.1 µM) | 1.6 µg/mL (≈ 2.25 µM) | 1.4 µg/mL (≈ 1.97 µM) | 0.9 µg/mL (≈ 1.27 µM) |  |  |  |  | 
